{"source": "patent US20130123201A1", "about": "“MODULATION OF CYTOKINE-INDUCED CHRONIC INFLAMMATORY RESPONSES” (UNIVERSITY OF MANITOBA, priority 2010, published 2013)", "type_in_all_cases": "cell-based", "key": {"[1]": {"test_system": "rabbit synovial fibroblast HIG-82 cell line", "test": "Cellular cytotoxicity by LDH release", "settings": "HIG-82 synovial fibroblast cell line, within 4 hr", "method": "(§1) Where indicated the THP-1 cells were differentiated to plastic-adherent macrophage-like cells by treatment with phorbol 12-myristate 13-acetate (PMA; Sigma-Aldrich Canada, Oakville ON) as taught by Mookherjee et al. (2006). A rabbit synoviocyte cell line HIG-82 (ATCC® CRL-1832) was cultured in Ham's F-12 growth medium containing glutamine supplemented with sodium pyruvate (referred to as complete F-12 media henceforth), containing 10% (v/v) FBS in a humidified incubator at 37° C. and 5% CO2. Confluent HIG-82 cells were trypsinized with 1:3 dilution of 0.5% trypsin-EDTA in Hanks' balanced salt solution. Cellular cytotoxicity was evaluated after AHA labeling and upon stimulation with the various cytokines for all the cell types used in this study by monitoring the release of lactate dehydrogenase (LDH) employing a colorimetric detection kit (Roche Diagnostics, Laval, QC, Canada). Recombinant human cytokines TNF-α and IL-1β were obtained from eBioscience, Inc (San Diego, Calif., USA)."}, "[2]": {"test_system": "human T-cell Jurkat cell line", "test": "Cellular cytotoxicity by LDH release", "settings": "human T-cell Jurkat cells", "method": "as §1"}, "[3]": {"test_system": "human monocytic THP-1 cells", "test": "Cellular cytotoxicity by LDH release", "quoted_text": "Human monocytic THP-1 (ATCC® TIB-202; ATCC is a registered trademark of the American Type Culture Collection, Manassas, Va., USA) cells were cultured in RPMI-1640 media containing 2 mM L-glutamine and 1 mM sodium pyruvate (referred to as complete RPMI media from here on), supplemented with 10% (v/v) FBS, and maintained in a humidified incubator at 37° C. and 5% CO2. […] Cellular cytotoxicity was evaluated after 24 hr stimulation with the various stimulants used in this study by monitoring the release of lactate dehydrogenase (LDH) employing a colorimetric detection kit (Roche Diagnostics, Laval, QC, Canada) Human monocytic THP-1 (ATCC® TIB-202) cells and Jurkat T-cell line (ATCC® TIB-152) were cultured in RPMI-1640 media containing 2 mM L-glutamine and 1 mM sodium pyruvate, supplemented with 10% (v/v) FBS, and maintained in a humidified incubator at 37° C. and 5% CO2. […] Cellular cytotoxicity was evaluated after AHA labeling and upon stimulation with the various cytokines for all the cell types used in this study by monitoring the release of lactate dehydrogenase (LDH) employing a colorimetric detection kit (Roche Diagnostics, Laval, QC, Canada)."}, "[4]": {"test_system": "human PBMC", "test": "ELISA of IL-32-induced TNF-α and IL-1β production in PBMC (ex-vivo)", "settings": "for Effect on IL-32-induced TNF-α production: p<0.05; for Effect on IL-32 induced pro-inflammatory protein production (FIG. 21 legend): peripheral blood mononuclear cells", "description": "In order to confirm these activities in a physiologically relevant system, we evaluated the impact of the peptide in an ex-vivo assay using human PBMC, because cells recruited from the circulation are a major component of inflammatory infiltrates. Venous blood was collected from healthy volunteers with informed consent in accordance to a protocol approved by the Institutional Review Board at the University of Manitoba. PBMC was isolated from blood following the teaching of Mookherjee et al. (2009, Systems biology evaluation of immune responses induced by human host defence peptide LL-37 in mononuclear cells. Mol. Biosyst. 5:483-496). PBMC were stimulated with chronic inflammatory cytokine IL-32 (20 ng/ml) in the presence and absence of 5 μM of peptides, LL-37 and its derivatives (Table 7) for 24 hr. The tissue culture supernatants were monitored for the production of pro-inflammatory cytokines TNF-α and IL-1β by ELISA. […] Results shown are an average of four independent biological experiments performed with cells isolated from blood of four different donors ±standard error."}, "[5]": {"test_system": "Human macrophage-like THP-1 cells", "test": "ELISA of cytokine/chemokine production in THP-1 tissue culture supernatants", "settings": "macrophage-like THP-1 cells, IL-32 20 ng/mL, 24 hr", "method": "ELISA immunoassay: Tissue culture supernatants were centrifuged at 1500× g for 5-7 min to obtain cell-free samples and the aliquots were stored at −20° C. until further use. Production of chemokine Gro-α was monitored in the tissue culture supernatants by ELISA employing human Gro-α DuoSet (R&D Systems Inc.) as per the manufacturer's instructions. Production of cytokine TNF-α was monitored in the tissue culture supernatants using specific antibody pairs from eBioscience, Inc., and production of IL-8 was monitored using specific antibody pairs from R&D Systems, Inc., as per the manufacturer's instructions. The concentration of the cytokines or chemokines in the tissue culture supernatants was evaluated by establishing a standard curve with serial dilutions of the recombinant human cytokines or chemokines as required.\nELISA immunoassay: Tissue culture supernatants were centrifuged at 1500× g for 5-7 min to obtain cell-free samples and the aliquots were stored at −20° C. until further use. Production of chemokine Gro-α was monitored in the tissue culture supernatants by ELISA employing human Gro-α DuoSet (R&D Systems Inc.) per the manufacturer's instructions. Production of cytokine TNF-α was monitored in the tissue culture supernatants using specific antibody pairs from eBioscience, Inc., and production of IL-8 was monitored using specific antibody pairs from R&D Systems, Inc., per the manufacturers' instructions. The concentrations of the cytokines or chemokines in the tissue culture supernatants were evaluated by establishing a standard curve with serial dilutions of the recombinant human cytokines or chemokines as required.\nImpact of cationic peptide LL-37 and its synthetic derivatives on IL-32-induced protein production: Human macrophage-like THP-1 cells were stimulated with IL-32 (20 ng/mL) in the presence and absence of cationic peptide LL-37, tissues culture supernatants were monitored for the production of pro-inflammatory cytokines TNF-α and IL-1β, and chemokines after 24 hr of stimulation. […] As LL-37 suppressed IL-32-mediated pro-inflammatory responses, we also evaluated the impact of LL-37 derived synthetic peptides. […] No studies to data have explored the impact of these peptides in the context of chronic inflammation. […] This provides the data that supports further investigation of these peptide candidates as potential therapeutics for diseases characterized by chronic inflammation."}, "[6]": {"test_system": "Human THP-1 monocytic cells", "test": "qRT-PCR kinetics of cytokine-induced gene expression of identified candidates", "description": "Quantitative real-time PCR (qRT-PCR): RNA was isolated using the Qiagen RNeasy® kit as per the manufacturer's instructions (Rneasy is a registered trademark of Qiagen GmbH, Hilden, Fed. Rep. Germany). Gene expression was subsequently analyzed by qRT-PCR using SuperScript® III Platinum Two-Step qRT-PCR Kit with SYBR Green (SuperScript is a registered trademark of Invitrogen Corp., Carlsbad, Calif., USA), according to the manufacturer's instructions, in the ABI PRISM® 7300 sequence detection system (BI PRISM is a registered trademark of Applera Corp., Foster City, Calif., USA). Fold changes were calculated by the comparative Ct method as taught by Pfaffl (2001) after normalization with 18sRNA."}, "[7]": {"test_system": "human monocytic THP-1 cells", "test": "AHA labeling, affinity purification and iTRAQ quantitative proteomics of nascent proteins", "settings": "AHA-labeled THP-1 cells, cytokine 10 ng/ml, 4 hr, vs un-stimulated cells", "method": "(§2) AHA labeling, biotin tagging of nascent proteins, and affinity purification: Cells were washed with warm D-PBS, and cultured in methionine-free, serum-free RPMI media at 37° C. 5% CO2 for 60 min. […] TC supernatants were monitored for the production of IL-8 by ELISA. Metabolic labeling of the cells with AHA reagent in the presence of the cytokine stimulants would result in induced nascent proteins with azide-bearing functional group, thus making them distinct from pool of pre-existing cellular proteins. Also these functional groups were further used to tag the nascent proteins with a biotin-alkyne reagent as follows. The cells were washed with D-PBS, followed by preparing cell lysates in lysis buffer containing 50 mM Tris-HCl, 1% SDS, 250 U/ml of benzonase nuclease and protease and phosphatase inhibitor cocktails (Sigma-Aldrich Canada Inc.). Total protein was estimated in the cell lysates using micro BCA analysis. Equivalent amount of total protein from each sample was acetone precipitated and then treated with Click-iT® Biotin-alkyne reagent (Invitrogen Canada Inc.) per the manufacturer's instructions. The biotin-alkyne reagent thus covalently coupled to the reactive azide group of the AHA-modified proteins was used to subsequently enrich the nascent proteins by affinity purification using Ultralink® Immobilized NeutrAvidin® resin (Ultralink and NeutrAvidin are registered trademarks of Pierce Biotechnology Inc, Rockford, Ill., USA), and the bound proteins were eluted using 6 M guanidinium hydrochloride.\nQuantitative proteomics employing isobaric tag for relative and absolute quantitation (iTRAQ): Amine-modifying iTRAQ™ reagents multiplex kit (Applied Biosystems, Foster City, Calif., USA) was employed for relative quantitation of purified nascent proteins. Affinity purified eluates were acetone precipitated at −20° C. overnight. Proteins were dissolved in 20 μl of iTRAQ dissolution buffer (Applied Biosystems) and further processed as per the manufacturer's instructions. Briefly, proteins were reduced and the cysteines blocked using the reagents in kit, followed by digestion of the protein samples with provided trypsin solution overnight at 37° C. […] The contents from each of the iTRAQ reagent-labeled sample was combined together and processed for nanoflow liquid chromatography coupled to tandem mass spectrometry (LC-MS/MS).\nThe AHA-containing nascent proteins enriched by affinity purification were quantitated using isobaric iTRAQ quantitative proteomics reagents. This was done to identify and estimative the relative abundance of nascent proteins enriched in the cytokine-treated samples compared to un-stimulated cells. […] Samples from four independent experiments were individually examined by LC-MS/MS. Peptides identified with 95% confidence were selected for further analysis. The mass spectrometry data was analyzed using Global Proteome Machine (GPM-http://www.thegpm.org/)."}, "[8]": {"test_system": "AHA-labeled human monocytic THP-1 cells", "test": "ELISA of IL-8 production by AHA-labeled THP-1 cells", "settings": "10 ng/ml, 4 hr", "method": "as §2, with “The biotin-alkyne reagent thus covalently coupled to the reactive azide group of the AHA-modified proteins was used to subsequently enrich the nascent proteins by affinity purification using Ultralink® Immobilized NeutrAvidin® resin (Ultralink and NeutrAvidin are registered trademarks of Pierce Biotechnology Inc, Rockford, Ill., USA), and the bound proteins were eluted using 6 M guanidinium hydrochloride.” left out"}, "[9]": {"settings": "human PBMC, IL-32 20 ng/ml, 5 μM peptide, 24 hr"}}, "note": "No end group written: not given here."}
{"compound": "[N-]=[N+]=NCC[C@H](N)C(=O)O", "note": "[AHA, L-azidohomoalanine]", "values": [{"measurement": "Cytotoxicity of AHA labeling (LDH release)", "setting": "[1]", "value": "cytotoxic"}, {"measurement": "Cytotoxicity of AHA labeling (LDH release)", "setting": "[2]", "value": "not cytotoxic"}, {"measurement": "Cytotoxicity of AHA labeling (LDH release)", "setting": "[3]; human monocytic THP-1 cells", "value": "not cytotoxic"}]}
{"compound": "IG-19: LL-37-derived synthetic peptide, SEQ ID NO: 23, IGKEFKRIVQRIKDFLRNL-NH2", "values": [{"measurement": "Effect on IL-32-induced IL-1β production", "setting": "[4]; [9]", "value": "neutralized"}, {"measurement": "Effect on IL-32-induced TNF-α production", "setting": "[4]; [9]", "value": "neutralized"}, {"measurement": "Effect on IL-32 induced pro-inflammatory protein production (FIG. 21 legend)", "setting": "[4]", "value": "suppression"}, {"measurement": "Effect on IL-32-induced IL-1β production", "setting": "[5]", "value": "significantly suppressed"}, {"measurement": "Effect on IL-32-induced TNF-α production", "setting": "[5]", "value": "significantly suppressed"}, {"measurement": "Effect on IL-32-induced chemokine production (IL-8, GROα)", "setting": "[5]", "value": "did not completely neutralize"}]}
{"compound": "IG-25: LL-37-derived synthetic peptide, SEQ ID NO: 22, IGKEFKRIVQRIKDFLRNLVPRTES-NH2", "values": [{"measurement": "Suppression of IL-32-induced TNF-α production", "setting": "[4]; [9]", "value": "> 90", "unit": "%"}, {"measurement": "Effect on IL-32-induced TNF-α production", "setting": "[4]; [9]", "value": "neutralized"}, {"measurement": "Effect on IL-32 induced pro-inflammatory protein production (FIG. 21 legend)", "setting": "[4]", "value": "suppression"}, {"measurement": "Effect on IL-32-induced IL-1β production", "setting": "[5]", "value": "significantly suppressed"}, {"measurement": "Effect on IL-32-induced TNF-α production", "setting": "[5]", "value": "significantly suppressed"}, {"measurement": "Effect on IL-32-induced chemokine production (IL-8, GROα)", "setting": "[5]", "value": "did not completely neutralize"}]}
{"compound": "IL-1β: Recombinant human cytokine IL-1β from eBioscience, used as stimulant", "values": [{"measurement": "Up-regulation of gene expression of PYGL", "setting": "[6]", "value": 1.5, "unit": "fold"}, {"measurement": "Up-regulation of gene expression of RAB14 and Eifa3", "setting": "[6]; p≦0.01", "value": "≥ 1.5", "unit": "fold"}, {"measurement": "Fold Change of nascent protein AIFM1", "setting": "[7]", "value": 1.2, "unit": "fold"}, {"measurement": "Fold Change of nascent protein ALDOA", "setting": "[7]", "value": 1.5, "unit": "fold"}, {"measurement": "Fold Change of nascent protein CALR", "setting": "[7]", "value": 1.0, "unit": "fold"}, {"measurement": "Fold Change of nascent protein CAP1", "setting": "[7]", "value": 1.9, "unit": "fold"}, {"measurement": "Fold Change of nascent protein CTPS", "setting": "[7]", "value": 1.5, "unit": "fold"}, {"measurement": "Fold Change of nascent protein DDX17", "setting": "[7]", "value": 2.2, "unit": "fold"}, {"measurement": "Fold Change of nascent protein EIFA3", "setting": "[7]", "value": 1.2, "unit": "fold"}, {"measurement": "Fold Change of nascent protein HMGN1", "setting": "[7]", "value": 1.5, "unit": "fold"}, {"measurement": "Fold Change of nascent protein HSPA4", "setting": "[7]", "value": 1.1, "unit": "fold"}, {"measurement": "Fold Change of nascent protein LCP1", "setting": "[7]", "value": 1.5, "unit": "fold"}, {"measurement": "Fold Change of nascent protein PRTN3", "setting": "[7]", "value": 0.8, "unit": "fold"}, {"measurement": "Fold Change of nascent protein PSME2", "setting": "[7]", "value": 2.3, "unit": "fold"}, {"measurement": "Fold Change of nascent protein PYGL", "setting": "[7]", "value": 1.7, "unit": "fold"}, {"measurement": "Fold Change of nascent protein RAB14", "setting": "[7]", "value": 1.2, "unit": "fold"}, {"measurement": "Fold Change of nascent protein SEC22B", "setting": "[7]", "value": 1.6, "unit": "fold"}, {"measurement": "Fold Change of nascent protein VDAC3", "setting": "[7]", "value": 1.1, "unit": "fold"}, {"measurement": "IL-8 production upon IL-1β stimulation compared to cells stimulated with TNF-α", "setting": "[8]", "value": "more than 2 fold"}, {"measurement": "Production of IL-8", "setting": "[8]; p<0.001", "value": "significant"}, {"measurement": "Cytotoxicity of cytokine treatment (LDH release)", "setting": "[3]; AHA-labeled THP-1 cells, cytokine 10 ng/ml, 4 hr, data not shown", "value": "not cytotoxic"}]}
{"compound": "RK-25: LL-37-derived synthetic peptide, SEQ ID NO: 24, RKSKEKIGKEFKRIVQRIKDFLRNL-NH2", "values": [{"measurement": "Effect on IL-32 induced pro-inflammatory protein production (FIG. 21 legend)", "setting": "[4]", "value": "suppression"}]}
